The target of one data set is TRAAK (Homo sapiens, UniProt Q9NYG8). Nature of the data set: K2P family selectivity, TRAAK. The data set is classed as cell-based.
In the next data set the target is TASK-3 (Homo sapiens, UniProt Q9NPC2). Nature of the data set: K2P family selectivity, TASK-3. The data set is classed as cell-based.
Data set [1] can be described thus: Plasma protein binding, mouse. The data set is classed as in vitro ADME. The following applies: bound; for fraction unbound at 6 h, 5 µM: mouse, plasma, pH 7.4, mouse plasma, read-out: PPB mouse (converted). As for the experimental part:
Plasma protein binding and Brain homogenate binding: Determination of fraction unbound (f u) in plasma was conducted in vitro via equilibrium dialysis using HTDialysis (HTD) membrane plates. The top half of the plate was filled with 100 uL of Dubelco’s Phosphate Buffered Saline, pH 7.4 (DPBS). Compounds were diluted into plasma from each species (5 µM final concentration), which was aliquoted in triplicate to the ‘bottom half’ of the prepared HTD plate wells. The HTD plate was sealed and incubated for 6 hours at 37 °C. Following incubation, each well (both top and bottom halves) were transferred (20 µL) to the corresponding wells of a 96-shallow-well (V-bottom) plate. The daughter plates were then matrix-matched (DPBS side wells received equal volume of plasma, and plasma side wells received equal volume of DPBS), and extraction solution (120 µL; acetonitrile containing 50 nM carbamazepine as IS) was added to all wells of both daughter plates to precipitate protein and extract test article. The plates were then sealed and centrifuged (3500 rcf) for 10 minutes at ambient temperature. Supernatant (60 µL) from each well of the daughter plates was then transferred to the corresponding wells of new daughter plates (96-shallow-well, V bottom) containing water (Milli-Q, 60 µL/well), and the plates were sealed in preparation for LC-MS/MS analysis (see LC-MS/MS analysis method below).
The unbound fraction (f u) was calculated following the equation below, and mean values for each species were calculated from 3 replicates. […]
Fraction unbound for both plasma and brain samples was determined using Equation 4.
Equation 4 Determination of fraction unbound in plasma. […]

For a further data set, the target named is CYP 3A4 (Homo sapiens, UniProt P08684). The data set can be described thus: CYP450 inhibition 3A4. The data set is classed as in vitro ADME.
The next data set addresses Kir2.2 (Homo sapiens, UniProt Q14500). Nature of the data set: MPC ion channel panel, Kir2.2. The data set is classed as cell-based.
Another data set addresses Kir2.1 (Homo sapiens, UniProt P63252). The data set can be described thus: MPC ion channel panel, Kir2.1. Type of data set: cell-based.
The target of a further data set is T1, rat TREK-1 (Rattus norvegicus, UniProt Q920B6).
T1 sequence (Q920B6 1-426): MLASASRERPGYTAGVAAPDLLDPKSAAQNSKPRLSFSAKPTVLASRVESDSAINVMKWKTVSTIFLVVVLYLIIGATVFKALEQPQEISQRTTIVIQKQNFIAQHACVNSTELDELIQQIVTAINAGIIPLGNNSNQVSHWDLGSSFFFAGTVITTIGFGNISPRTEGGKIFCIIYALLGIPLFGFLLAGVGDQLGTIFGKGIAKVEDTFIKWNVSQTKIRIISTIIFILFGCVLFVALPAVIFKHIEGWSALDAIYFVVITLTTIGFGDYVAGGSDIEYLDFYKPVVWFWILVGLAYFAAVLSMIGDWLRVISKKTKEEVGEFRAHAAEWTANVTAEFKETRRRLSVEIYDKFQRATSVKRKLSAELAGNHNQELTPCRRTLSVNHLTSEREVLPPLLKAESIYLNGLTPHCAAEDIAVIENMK
The data set can be described thus: rat TREK-1 thallium flux. The data set is classed as cell-based. The note with it: read-out: TREK-1 IC50 (rat, Tl+).

The nature of data set [2]: Embryo fetal developmental toxicity in vivo.
A further data set in a line: CACO-2 efflux ratio. Type of data set: in vitro ADME. The note with it: human, pH 7.4, efflux ratio, read-out: CACO-2 (ER). A general note: Caco-2 monolayers are a common model of the intestinal barrier.
A further data set addresses T2, human TREK-2 (hTREK-2) (Homo sapiens, UniProt P57789).
T2 construct: expressed in transfected cells
T2 sequence (P57789 1-538): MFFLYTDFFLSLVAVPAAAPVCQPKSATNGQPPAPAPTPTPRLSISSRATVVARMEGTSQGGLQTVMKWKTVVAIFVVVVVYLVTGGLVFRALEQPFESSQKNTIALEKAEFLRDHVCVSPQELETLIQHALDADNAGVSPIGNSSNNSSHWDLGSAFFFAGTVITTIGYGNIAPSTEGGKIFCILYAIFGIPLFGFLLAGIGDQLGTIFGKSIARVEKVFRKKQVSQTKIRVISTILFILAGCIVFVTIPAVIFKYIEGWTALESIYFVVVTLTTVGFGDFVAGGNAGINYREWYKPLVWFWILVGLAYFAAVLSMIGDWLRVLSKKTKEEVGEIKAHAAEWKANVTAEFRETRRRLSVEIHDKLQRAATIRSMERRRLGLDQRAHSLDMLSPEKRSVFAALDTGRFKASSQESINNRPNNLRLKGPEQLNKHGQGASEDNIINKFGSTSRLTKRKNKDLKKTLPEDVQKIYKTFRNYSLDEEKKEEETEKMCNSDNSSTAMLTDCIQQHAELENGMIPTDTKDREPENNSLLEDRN
Nature of the data set: TREK-2 thallium flux assay (HEK293 cells stably expressing hTREK-2). The data set is classed as cell-based. The following applies: human TREK-2, thallium flux; read-out: h TREK-2 Tl+ IC50. As for the experimental part: 0.3% DMSO - ΔRatio of 10 μM control compound)}x100
% inhibition vs compound concentration were plotted in XLfit and calculated IC50.
TREK-2 Thallium flux assay
HEK293 cells stably expressing human TREK-2 (hTREK-2) are plated in 384-well plates, cultured overnight, loaded with Thallos dye the following day. Test compounds or control compound (tert-butyl (3-((4-(benzyloxy)-2-methylphenyl)carbamoyl)-4-chlorophenyl)carbamate) or 0.3% DMSO (vehicle control) which are prepared on separate plates are added to the cell plates and incubated for 10 min, and then the cells were treated with thallium stimulus buffer to initiate […]
To measure the efficacy and potency of test compounds, the change in fluorescence intensity (ΔRatio) and % inhibition are calculated using the following equations: […]

The target in the next data set is CYP 2D6 (Homo sapiens, UniProt P10635). The data set can be described thus: CYP450 inhibition 2D6. Type of data set: in vitro ADME.
Another data set deals with T3, dopamine transporter DAT (Homo sapiens, UniProt Q01959).
T3 construct: purchased Eurofins
Nature of the data set: Radioligand binding, dopamine transporter.

The next data set is described as follows: in vivo. The following applies: rat, po.
A further data set addresses TRESK (Homo sapiens, UniProt Q7Z418). Nature of the data set: K2P family selectivity, TRESK. Type of data set: cell-based.
Data set [3] relates to 68 GPCRs, ion channels, and transporters. Nature of the data set: Eurofins Lead Profiling Panel, radioligand binding displacement. The following applies: 68 targets, 10 μM.
The target of another data set is CYP 1A2 (Homo sapiens, UniProt P05177). Nature of the data set: CYP450 inhibition 1A2. The data set is classed as in vitro ADME.
The target of a further data set is sodium channel site 2. Nature of the data set: Radioligand binding, sodium channel site 2.
Where [4] appears, read: radioligand binding displacement, 10 μM.

Where two headings read alike, the source gives them in different places.

T3 sequence (Q01959 whole entry): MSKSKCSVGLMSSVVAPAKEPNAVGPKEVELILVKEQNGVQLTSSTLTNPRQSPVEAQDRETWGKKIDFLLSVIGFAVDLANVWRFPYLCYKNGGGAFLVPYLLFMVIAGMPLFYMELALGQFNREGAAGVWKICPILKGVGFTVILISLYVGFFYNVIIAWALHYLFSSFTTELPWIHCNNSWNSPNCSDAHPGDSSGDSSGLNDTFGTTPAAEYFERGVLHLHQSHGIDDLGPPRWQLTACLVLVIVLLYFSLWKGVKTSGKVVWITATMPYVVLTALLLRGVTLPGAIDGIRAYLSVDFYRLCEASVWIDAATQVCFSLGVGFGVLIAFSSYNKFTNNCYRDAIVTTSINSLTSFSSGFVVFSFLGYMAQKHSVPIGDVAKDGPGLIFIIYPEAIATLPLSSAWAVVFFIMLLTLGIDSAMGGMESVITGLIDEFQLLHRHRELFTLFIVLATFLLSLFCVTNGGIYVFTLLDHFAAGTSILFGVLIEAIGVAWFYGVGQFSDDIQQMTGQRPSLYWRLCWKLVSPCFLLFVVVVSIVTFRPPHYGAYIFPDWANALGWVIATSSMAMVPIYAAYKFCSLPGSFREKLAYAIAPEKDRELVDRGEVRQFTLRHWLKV
Chain of CYP 1A2 (P05177 whole entry): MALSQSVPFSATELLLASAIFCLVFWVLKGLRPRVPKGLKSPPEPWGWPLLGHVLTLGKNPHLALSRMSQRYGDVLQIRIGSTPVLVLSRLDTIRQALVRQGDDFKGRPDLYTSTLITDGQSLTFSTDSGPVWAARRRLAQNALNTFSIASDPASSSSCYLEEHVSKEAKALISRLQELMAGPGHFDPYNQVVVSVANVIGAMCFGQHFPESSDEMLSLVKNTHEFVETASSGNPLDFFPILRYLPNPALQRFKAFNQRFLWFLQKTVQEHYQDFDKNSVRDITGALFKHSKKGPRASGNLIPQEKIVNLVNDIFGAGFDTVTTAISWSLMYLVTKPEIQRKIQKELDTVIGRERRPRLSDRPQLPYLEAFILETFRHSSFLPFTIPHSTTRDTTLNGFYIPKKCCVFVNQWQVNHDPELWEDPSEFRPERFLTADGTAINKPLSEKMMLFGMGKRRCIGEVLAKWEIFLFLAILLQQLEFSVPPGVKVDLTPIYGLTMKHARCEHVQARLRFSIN
Chain of CYP 3A4 (P08684 whole entry): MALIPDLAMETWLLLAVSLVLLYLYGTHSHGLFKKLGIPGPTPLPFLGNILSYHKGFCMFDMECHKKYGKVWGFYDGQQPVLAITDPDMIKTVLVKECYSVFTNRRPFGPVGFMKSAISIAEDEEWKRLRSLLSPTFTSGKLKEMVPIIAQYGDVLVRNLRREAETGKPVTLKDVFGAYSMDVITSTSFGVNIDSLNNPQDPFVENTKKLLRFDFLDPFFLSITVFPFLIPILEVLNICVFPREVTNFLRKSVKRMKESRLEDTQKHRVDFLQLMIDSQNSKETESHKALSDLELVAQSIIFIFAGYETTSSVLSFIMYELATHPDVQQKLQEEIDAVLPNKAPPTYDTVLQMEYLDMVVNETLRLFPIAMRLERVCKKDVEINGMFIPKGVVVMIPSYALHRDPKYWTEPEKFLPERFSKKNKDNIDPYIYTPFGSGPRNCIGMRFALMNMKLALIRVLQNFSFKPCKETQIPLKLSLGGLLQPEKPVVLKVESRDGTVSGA
Chain of Kir2.1 (P63252 whole entry): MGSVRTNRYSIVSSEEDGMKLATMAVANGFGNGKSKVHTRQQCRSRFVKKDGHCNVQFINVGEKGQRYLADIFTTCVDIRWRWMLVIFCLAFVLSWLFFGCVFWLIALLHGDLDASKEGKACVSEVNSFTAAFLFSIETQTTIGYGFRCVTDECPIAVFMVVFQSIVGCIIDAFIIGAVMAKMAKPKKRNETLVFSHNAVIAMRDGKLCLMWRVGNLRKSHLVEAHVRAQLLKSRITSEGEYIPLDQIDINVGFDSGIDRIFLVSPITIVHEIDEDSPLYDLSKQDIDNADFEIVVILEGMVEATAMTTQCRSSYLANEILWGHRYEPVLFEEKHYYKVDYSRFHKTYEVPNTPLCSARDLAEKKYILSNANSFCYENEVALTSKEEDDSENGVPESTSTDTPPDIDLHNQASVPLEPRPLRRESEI
Chain of CYP 2D6 (P10635 whole entry): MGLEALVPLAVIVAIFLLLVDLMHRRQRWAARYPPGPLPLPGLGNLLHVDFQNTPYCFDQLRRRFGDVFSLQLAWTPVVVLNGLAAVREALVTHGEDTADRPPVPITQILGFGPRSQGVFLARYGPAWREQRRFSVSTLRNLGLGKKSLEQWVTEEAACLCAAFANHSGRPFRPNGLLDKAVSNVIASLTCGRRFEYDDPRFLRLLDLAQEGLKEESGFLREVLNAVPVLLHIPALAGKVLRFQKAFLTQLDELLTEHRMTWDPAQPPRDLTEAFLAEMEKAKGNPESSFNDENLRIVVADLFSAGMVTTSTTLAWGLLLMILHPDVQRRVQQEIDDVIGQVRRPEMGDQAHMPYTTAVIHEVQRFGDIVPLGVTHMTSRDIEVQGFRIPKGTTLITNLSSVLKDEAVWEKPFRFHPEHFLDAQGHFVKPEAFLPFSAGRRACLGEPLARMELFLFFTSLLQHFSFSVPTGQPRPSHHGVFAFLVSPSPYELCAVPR
Chain of Kir2.2 (Q14500 whole entry): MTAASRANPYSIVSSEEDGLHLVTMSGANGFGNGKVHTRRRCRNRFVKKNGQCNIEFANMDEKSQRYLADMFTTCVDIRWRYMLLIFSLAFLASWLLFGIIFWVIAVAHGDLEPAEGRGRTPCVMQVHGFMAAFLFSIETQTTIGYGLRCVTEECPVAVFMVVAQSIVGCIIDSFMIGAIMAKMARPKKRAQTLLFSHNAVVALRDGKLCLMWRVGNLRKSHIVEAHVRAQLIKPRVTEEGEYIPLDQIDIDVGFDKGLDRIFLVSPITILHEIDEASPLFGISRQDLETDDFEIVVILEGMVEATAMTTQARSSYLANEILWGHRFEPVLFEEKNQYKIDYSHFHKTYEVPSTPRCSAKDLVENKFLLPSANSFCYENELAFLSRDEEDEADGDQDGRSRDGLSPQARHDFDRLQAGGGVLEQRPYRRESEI
Chain of TRESK (Q7Z418 whole entry, species assumed): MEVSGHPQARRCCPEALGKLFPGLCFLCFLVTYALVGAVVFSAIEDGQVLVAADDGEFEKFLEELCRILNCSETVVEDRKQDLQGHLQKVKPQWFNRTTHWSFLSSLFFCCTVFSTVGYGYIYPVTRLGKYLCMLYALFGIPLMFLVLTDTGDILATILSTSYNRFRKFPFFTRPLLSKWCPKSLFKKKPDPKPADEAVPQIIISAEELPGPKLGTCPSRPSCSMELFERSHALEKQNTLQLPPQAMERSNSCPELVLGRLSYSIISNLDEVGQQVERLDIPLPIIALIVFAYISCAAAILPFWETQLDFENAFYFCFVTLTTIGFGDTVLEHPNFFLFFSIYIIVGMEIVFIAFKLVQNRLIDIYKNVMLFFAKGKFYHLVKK
Chain of TASK-3 (Q9NPC2 whole entry, species assumed): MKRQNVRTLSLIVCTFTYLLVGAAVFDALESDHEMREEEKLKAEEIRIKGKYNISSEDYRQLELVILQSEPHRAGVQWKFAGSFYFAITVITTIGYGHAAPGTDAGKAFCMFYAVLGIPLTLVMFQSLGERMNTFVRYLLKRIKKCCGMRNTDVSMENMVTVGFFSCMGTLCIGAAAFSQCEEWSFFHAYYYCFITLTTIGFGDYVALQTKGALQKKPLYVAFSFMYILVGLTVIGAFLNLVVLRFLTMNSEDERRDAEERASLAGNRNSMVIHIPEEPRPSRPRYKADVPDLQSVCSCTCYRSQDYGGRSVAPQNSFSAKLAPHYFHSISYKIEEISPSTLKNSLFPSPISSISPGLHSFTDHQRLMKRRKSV
Chain of TRAAK (Q9NYG8 whole entry, species assumed): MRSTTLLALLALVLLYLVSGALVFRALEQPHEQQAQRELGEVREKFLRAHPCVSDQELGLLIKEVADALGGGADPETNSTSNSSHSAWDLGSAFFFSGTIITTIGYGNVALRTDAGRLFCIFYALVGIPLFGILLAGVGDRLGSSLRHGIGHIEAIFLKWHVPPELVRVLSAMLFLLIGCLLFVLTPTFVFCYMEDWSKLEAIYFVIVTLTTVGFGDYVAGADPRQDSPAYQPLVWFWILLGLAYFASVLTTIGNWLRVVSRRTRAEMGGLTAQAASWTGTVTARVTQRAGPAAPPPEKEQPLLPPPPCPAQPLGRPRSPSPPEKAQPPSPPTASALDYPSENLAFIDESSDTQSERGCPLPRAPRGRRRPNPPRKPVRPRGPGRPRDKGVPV

For orientation: inhibition means the percentage by which the read-out fell short of the control. A lower inhibition goes with little suppression. For orientation: IC50 means the concentration that inhibits the measured activity by half. One may read the NOAEL as the highest tested level that showed no adverse finding. Take `CC(=O)N1CCC(n2ncc(Cl)c2C(=O)Nc2ncc(C#Cc3ccccc3)cc2C)CC1` [Compound 10, 1-(1-Acetylpiperidin-4-yl)-4-chloro-N-(3-methyl-5-(phenylethynyl)pyridin-2-yl)-1H-pyrazole-5-carboxamide]: the inhibition at 10 µM was 84% at TRAAK; 78% against TASK-3; 51% on Kir2.2; at most 50% on Kir2.1; 78% on dopamine transporter DAT (setting [4]). Besides, the fraction unbound at 6 h, 5 µM in data set [1] was 0.018. Also, the IC50 stood at 10.8 µM at CYP 3A4; 0.28 µM at rat TREK-1; 0.23 µM at human TREK-2 (hTREK-2); 10.3 µM on CYP 2D6; 2.86 µM at dopamine transporter DAT (follow-up binding); 23.6 µM against CYP 1A2. In addition, the “embryo fetal developmental toxicity” value is “positive” in data set [2] and “positive signal” in data set [2] (listed as ONO-9517601). For the same compound, in “CACO-2 efflux ratio”, the efflux ratio was 0.7. Also, in the data set “in vivo”, the NOAEL at 4 days is 10 mg/kg. Besides, the TRESK inhibition entry at TRESK was “nothing significant”. For the same compound, the “targets with >50% inhibition in Lead Profiling Panel” value in data set [3] was “only two targets displayed >50% inhibition”.

`CC(=O)N1CC[C@@H](n2ncc(Cl)c2C(=O)Nc2ncc(C#Cc3ccc(F)cc3)cc2C)[C@H](F)C1` [Compound 11, 1-((3R,4R)-1-Acetyl-3-fluoropiperidin-4-yl)-4-chloro-N-(5-((4-fluorophenyl)ethynyl)-3-methylpyridin-2-yl)-1H-pyrazole-5-carboxamide]: the IC50 is 10.5 µM against CYP 3A4; 0.29 µM at rat TREK-1; 9.13 µM on sodium channel site 2 (follow-up binding); 0.29 µM at human TREK-2 (hTREK-2); 7 µM at CYP 2D6; above 30 µM on CYP 1A2. The inhibition at 10 µM against Kir2.2 and against Kir2.1 was at most 50% throughout. The results for the “embryo fetal developmental toxicity” value in data set [2] and in data set [2] (listed as ONO-7927846) were “positive” and “positive signal”, respectively. The efflux ratio in the data set “CACO-2 efflux ratio” was found to be 0.91. In addition, the “sodium channel site 2 inhibition at 10 μM” value with sodium channel site 2 (setting [4]) amounted to 56%. The compound further returned an NOAEL at 4 days in “in vivo” of 6 mg/kg. Also, the “targets with >50% inhibition in Lead Profiling Panel” value in data set [3] is reported as “only two targets displayed >50% inhibition”.

As for `Cc1cc(C#Cc2ccccc2)cnc1NC(=O)c1c(Cl)cnn1[C@H]1CCOC1` [Compound 15a, (S)-4-Chloro-N-(3-methyl-5-(phenylethynyl)pyridin-2-yl)-1-(tetrahydrofuran-3-yl)-1H-pyrazole-5-carboxamide], in data set [1] (mouse plasma), the PPB mouse turned out to be 98.0%. Further, the fraction unbound at 6 h, 5 µM in data set [1] was around 0.02.
